Data on 6 molecules can be found in PMC9386001, “Identification of naturally occurring inhibitors in Xian-Ling-Gu-Bao capsule against the glucuronidation of estrogens” (Frontiers in Pharmacology, 2022).

A value given as a limit tells only on which side of the number the result lay.

Data set [1] addresses T1, UGT1A10 (Homo sapiens, UniProt Q9HAW8).
T1 sequence (Q9HAW8 26-530): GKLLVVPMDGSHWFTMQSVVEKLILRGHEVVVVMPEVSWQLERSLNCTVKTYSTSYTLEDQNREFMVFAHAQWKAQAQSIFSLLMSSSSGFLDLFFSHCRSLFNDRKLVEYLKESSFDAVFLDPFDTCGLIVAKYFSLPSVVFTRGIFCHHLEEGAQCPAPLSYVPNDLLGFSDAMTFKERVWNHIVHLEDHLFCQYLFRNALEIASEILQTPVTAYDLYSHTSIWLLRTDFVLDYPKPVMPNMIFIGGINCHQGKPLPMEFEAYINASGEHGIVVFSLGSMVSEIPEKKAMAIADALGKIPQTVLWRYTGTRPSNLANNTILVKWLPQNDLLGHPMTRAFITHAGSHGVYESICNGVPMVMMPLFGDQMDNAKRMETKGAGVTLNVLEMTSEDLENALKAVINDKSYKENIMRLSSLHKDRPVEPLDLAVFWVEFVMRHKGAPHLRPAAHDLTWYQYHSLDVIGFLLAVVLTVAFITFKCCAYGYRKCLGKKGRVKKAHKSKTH
Also on record: purchased Corning Biosciences. To be noted: substrate of UGT1A10; ref Xin et al., 2016; Gao et al., 2020; cited from earlier work.

The next data set concerns the target T2, UGT2B7 (Homo sapiens, UniProt P16662).
T2 sequence (P16662 24-529): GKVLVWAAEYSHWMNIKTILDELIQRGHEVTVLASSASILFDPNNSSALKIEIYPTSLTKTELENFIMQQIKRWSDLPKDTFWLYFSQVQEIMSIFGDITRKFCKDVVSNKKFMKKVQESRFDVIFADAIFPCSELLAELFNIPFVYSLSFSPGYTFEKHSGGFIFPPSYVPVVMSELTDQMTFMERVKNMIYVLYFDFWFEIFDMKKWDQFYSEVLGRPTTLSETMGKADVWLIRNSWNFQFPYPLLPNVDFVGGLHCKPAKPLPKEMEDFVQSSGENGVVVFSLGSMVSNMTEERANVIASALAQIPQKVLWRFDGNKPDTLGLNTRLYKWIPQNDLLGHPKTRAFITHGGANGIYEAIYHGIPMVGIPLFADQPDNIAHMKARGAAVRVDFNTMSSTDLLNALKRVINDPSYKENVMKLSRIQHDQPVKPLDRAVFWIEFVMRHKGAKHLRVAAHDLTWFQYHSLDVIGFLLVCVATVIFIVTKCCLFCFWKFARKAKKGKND
Put plainly: Inhibition of UGT2B7 (zidovudine-N-glucuronidation). Conditions: for Inhibitory type / α: UGT2B7; for Inhibitory type: best model by smallest AIC and SC; for α: mixed-type inhibition model, αKi; for activity at 10 µM: human, UGT2B7 enzyme (optimized UGT2B7 incubation system), probe zidovudine (AZT). As for the experimental part:
(§1) The final volume of solvent in incubations was 1%. In addition, emodin, atazanavir, and diclofenac were considered as positive controls for UGT1A10, UGT1A1, and UGT2B7, respectively.
(§2) Competitive inhibition, non-competitive inhibition, and mixed-type inhibition models were used to estimate the Ki values by nonlinear regression based on Eqs 6–8, respectively.

The test system of data set [2] is UGT1A1. Also on record: method as in Wang et al., 2015a. Conditions: ref Wang et al., 2015a; cited from earlier work.
The target in data set [3] is T3, UGT1A1 (Homo sapiens, UniProt P22309).
T3 sequence (P22309 26-533): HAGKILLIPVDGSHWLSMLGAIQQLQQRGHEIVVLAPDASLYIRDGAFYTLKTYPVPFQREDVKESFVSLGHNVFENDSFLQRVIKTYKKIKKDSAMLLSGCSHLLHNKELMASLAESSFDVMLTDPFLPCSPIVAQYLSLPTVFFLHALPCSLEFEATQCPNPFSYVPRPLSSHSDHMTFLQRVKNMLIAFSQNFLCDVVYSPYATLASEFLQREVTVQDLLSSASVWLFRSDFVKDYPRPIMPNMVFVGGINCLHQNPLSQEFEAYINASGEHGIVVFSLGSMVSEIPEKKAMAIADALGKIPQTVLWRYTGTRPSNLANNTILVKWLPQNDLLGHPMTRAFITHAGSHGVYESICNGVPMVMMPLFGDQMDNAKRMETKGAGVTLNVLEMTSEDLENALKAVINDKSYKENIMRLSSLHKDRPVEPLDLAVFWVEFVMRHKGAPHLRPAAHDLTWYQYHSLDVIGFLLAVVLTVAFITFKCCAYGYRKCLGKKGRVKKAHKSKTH
Put plainly: Inhibition of UGT1A1 (β-estradiol-3-O-glucuronidation). Conditions: for Inhibitory type: UGT1A1, best model by smallest AIC and SC; for activity at 10 µM: human, human UGT1A1 enzyme, probe β-estradiol (E2). The protocol:
as §1, §2

The target of data set [4] is T1, UGT1A10. Put plainly: Inhibition of UGT1A10 (4-methylumbelliferone-O-glucuronidation). Conditions: for Inhibitory type: UGT1A10, best model by smallest AIC and SC; for activity at 10 µM: human, expressed human UGT1A10 enzyme, probe 4-methylumbelliferone (4-MU). The protocol: as §1, §2
Data set [5] has as its system human liver microsomes (HLM). Put plainly: Estrogen glucuronidation kinetics by HLM. Conditions: HLM; 3-O-glucuronide formation. The data set is classed as in vitro ADME. As for the experimental part: (§3) In brief, incubation mixtures (100 μL) contained Tris-HCl buffer solution (50 mM, pH = 7.4), microsomes (HLM, HIM, 0.5 mg/ml) or UGT enzymes (1 mg/ml), MgCl2 (0.88 mM), alamethicin (22 μg/ml), and D-saccharic-1,4-lactone (4.4 mM) and respective substrate. The volume of organic solvent in incubation mixtures was kept below 1%. After pre-incubation at 37°C for 5 min, the reaction was commenced with the addition of UDPGA (4 mM) and subsequently incubated at 37°C for a period. The reaction was terminated by adding 100 μL of cold acetonitrile. Then, the incubation mixtures were vortexed and centrifuged at 13,800 g for 10 min to collect the supernatant for analysis.
(§4) All experiments were performed in triplicate.
(§5) Glucuronidation rates were expressed as the amounts of formed metabolites per minute per milligram protein (pmol/min/mg protein) based on Eq. 1. Furthermore, kinetic characteristics were evaluated from the suitable curves based on the profile of the Eadie–Hofstee plot, and corresponding kinetic parameters were estimated using Eqs 2–4. Appropriated model fitting was performed by GraphPad Prism V5 software (San Diego, CA).
(§6) The intrinsic clearance (CL int ) was derived from V max /K m for Michaelis–Menten and substrate inhibition models, and the maximal clearance (CL max ) was obtained using Eq. 5 for Hill kinetics. Vg=Cs∗V/Cprotein∗T∗Vprotein. (1) V=Vmax×[S]/Km+[S], (2) V=Vmax×[S]/Km+[S](1+[S]/Ksi), (3) V=Vmax×[S]^n/S50n[…], (4) CLmax=Vmax/S50×n−1/n(n−1)^1/n. (5)

Another data set deals with T4, UGT1A3 (Homo sapiens, UniProt P35503).
T4 construct: purchased Corning Biosciences
T4 sequence (P35503 29-534): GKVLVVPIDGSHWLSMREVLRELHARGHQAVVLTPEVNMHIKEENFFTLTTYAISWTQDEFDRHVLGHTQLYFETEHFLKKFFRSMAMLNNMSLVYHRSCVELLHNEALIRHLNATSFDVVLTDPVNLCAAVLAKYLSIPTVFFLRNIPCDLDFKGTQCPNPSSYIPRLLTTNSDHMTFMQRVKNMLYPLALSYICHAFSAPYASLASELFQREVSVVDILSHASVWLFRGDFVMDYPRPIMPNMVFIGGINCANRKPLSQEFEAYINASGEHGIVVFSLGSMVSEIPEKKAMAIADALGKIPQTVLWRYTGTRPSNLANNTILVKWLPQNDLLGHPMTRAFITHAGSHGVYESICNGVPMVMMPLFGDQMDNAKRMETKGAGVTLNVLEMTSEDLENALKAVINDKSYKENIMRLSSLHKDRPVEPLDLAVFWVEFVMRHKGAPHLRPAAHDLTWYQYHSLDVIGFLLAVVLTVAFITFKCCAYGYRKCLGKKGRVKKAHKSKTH
Put plainly: Estrogen glucuronidation kinetics by expressed UGT1A3. The data set is classed as in vitro ADME. The protocol:
as §3, §4, §5
(§7) The intrinsic clearance (CL int ) was derived from V max /K m for Michaelis–Menten and substrate inhibition models, and the maximal clearance (CL max ) was obtained using Eq. 5 for Hill kinetics. Vg=Cs∗V/Cprotein∗T∗Vprotein. […]

In data set [6] the test system is human intestine microsomes (HIM). Put plainly: Estrogen glucuronidation kinetics by HIM. The data set is classed as in vitro ADME. Conditions: HIM, 3-O-glucuronide formation. The protocol:
as §4
(§8) Vg=Cs∗V/Cprotein∗T∗Vprotein. […] (5)

A short description of data set [7]: Estrogen glucuronidation kinetics by HIM. The data set is classed as in vitro ADME, human. To be noted: human, human intestine microsomes, pH 7.4, HIM; 3-O-glucuronide formation; read-out: CL int or CL max. The protocol:
as §4, §8

The target in data set [8] is T1, UGT1A10. Put plainly: Glucuronidation kinetics by expressed UGT1A10. The protocol: as §3, with “The glucuronidation assay was conducted as described previously ([Qin et al., 2018]; [Xu et al., 2018]). In” for “In”
as §4, §5, §6

Data set [9] concerns the target T3, UGT1A1. Put plainly: Estrogen glucuronidation kinetics by expressed UGT1A1. To be noted: 3-O-glucuronide formation. The protocol:
as §3, §4, §5, §7

Substrate in data set [10]: C[C@]12CC[C@@H]3c4ccc(O)cc4CC[C@H]3[C@@H]1CCC2=O
Put plainly: Estrogen glucuronidation kinetics by expressed UGT1A3. The data set is classed as in vitro ADME, human. To be noted: other: UGT1A3; 3-O-glucuronide formation; pH 7.4; 37.0 °C.

For the molecule `Cc1cc(=O)oc2cc(O)ccc12` [4-MU, 4-methylumbelliferone], the Michaelis-Menten constant (Km) at UGT1A10 [1] is roughly 60 µM.

Regarding `CC(C)=CCc1cc2c(cc1O)O[C@H](c1ccc(O)cc1)CC2=O` [Bavachin, bavachin], on UGT2B7, it took 4970 ± 550 nM to reach half-maximal inhibition (IC50), the Ki is 640 ± 160 nM, the Inhibitory type entry was “Mixed type” and the α is 69.70 ± 6.67. The same molecule came in with an activity at 10 µM on UGT2B7 of 32.5%. Further, the Ki in the data set with UGT1A1 [2] was less than 1000 nM. On UGT1A1 [3], the midpoint of inhibition, the IC50, lay at 610 ± 20 nM; the Ki was 400 ± 50 nM; the Inhibitory type result was “Non-competitive”; the activity at 10 µM is 2.43%. Further, on UGT1A10 [4], inhibition was half-maximal at 5.63 ± 0.46 µM (IC50), the Ki came to 2810 ± 210 nM, the Inhibitory type entry is on record as “Competitive” and the activity at 10 µM is 35.6%.

On to `CC(C)=CCC/C(C)=C/Cc1cc(-c2coc3cc(O)ccc3c2=O)ccc1O` [Corylifol A, corylifol A], for which, at UGT2B7, half-maximal inhibition (IC50) required 880 ± 80 nM, the Ki was determined as 360 ± 70 nM, the Inhibitory type entry is recorded as “Mixed type” and the α is on record as 5.17 ± 3.55. At UGT2B7, this molecule came in with an activity at 10 µM of 0%. Also, the Ki in the data set with UGT1A1 [2] is less than 1000 nM. Further, on UGT1A1 [3], the IC50 was 440 ± 50 nM, the Ki worked out at 440 ± 70 nM, the Inhibitory type result is listed as “Competitive” and the activity at 10 µM was 0.72%. On UGT1A10 [4], inhibition was half-maximal at 2.91 ± 0.34 µM (IC50), the Ki came out at 780 ± 60 nM, the Inhibitory type result was “Non-competitive” and the activity at 10 µM was 13.9%.

As for `C[C@]12CC[C@@H]3c4ccc(O)cc4CC[C@H]3[C@@H]1CCC2=O` [E1, Estrone], the entries for the “K m or S50” value in [5] and in data set [6] were 6.87 ± 0.59 µM and 8.82 ± 0.37 µM, respectively. For the same molecule, the h at UGT1A3 (3-O-glucuronide formation, Hill coefficient) amounted to 2.09 ± 0.16; in data set [6] (Hill coefficient), 1.63 ± 0.09. Moreover, the microsomal CLint was determined as 11.7 ± 0.95 µL/min/mg at UGT1A3 (human, recombinant (expressed) UGT1A3, pH 7.4, 3-O-glucuronide formation, read-out: CL int or CL max) and 25.25 ± 0.24 µL/min/mg in data set [7].

For `C[C@]12CC[C@@H]3c4ccc(O)cc4CC[C@H]3[C@@H]1CC[C@@H]2O` [E2, β-estradiol], the “K m or S50” value was 113.2 ± 46.66 µM on UGT1A10 [8] (3-O-glucuronide formation), 16.39 ± 3.53 µM on UGT1A10 [8] (17-O-glucuronide formation) and 11.08 ± 0.48 µM at UGT1A1 [9]. This molecule also returned a Ki on UGT1A10 [8] (3-O-glucuronide formation, substrate inhibition constant) of 71.98 ± 35.77 µM. The molecule further showed a V max on UGT1A1 [9] of 754.9 ± 15.14 pmol/min/mg.

B1: UGT1A3 (Homo sapiens) (protein)
chain: GKVLVVPIDGSHWLSMREVLRELHARGHQAVVLTPEVNMHIKEENFFTLTTYAISWTQDEFDRHVLGHTQLYFETEHFLKKFFRSMAMLNNMSLVYHRSCVELLHNEALIRHLNATSFDVVLTDPVNLCAAVLAKYLSIPTVFFLRNIPCDLDFKGTQCPNPSSYIPRLLTTNSDHMTFMQRVKNMLYPLALSYICHAFSAPYASLASELFQREVSVVDILSHASVWLFRGDFVMDYPRPIMPNMVFIGGINCANRKPLSQEFEAYINASGEHGIVVFSLGSMVSEIPEKKAMAIADALGKIPQTVLWRYTGTRPSNLANNTILVKWLPQNDLLGHPMTRAFITHAGSHGVYESICNGVPMVMMPLFGDQMDNAKRMETKGAGVTLNVLEMTSEDLENALKAVINDKSYKENIMRLSSLHKDRPVEPLDLAVFWVEFVMRHKGAPHLRPAAHDLTWYQYHSLDVIGFLLAVVLTVAFITFKCCAYGYRKCLGKKGRVKKAHKSKTH
notes: purchased Corning Biosciences
Consider B1, for which, in data set [10], the K0.5 came out at 9.23 ± 0.39 µM.

Broadly, the Km is the concentration of substrate that gives half-maximal velocity. What is called IC50 is the concentration needed to halve the response being measured. Low readings indicate inhibition by little substance, high ones a need for much substance.
